We go through 18 compounds from US9580416B2, “Inhibitors of Bruton's tyrosine kinase” (PHARMACYCLICS LLC, priority 2014, dated 2017).

What all share (type): biochemical
One assay addresses Btk (Homo sapiens, UniProt Q06187). The assay is described as follows: Btk kinase activity, TR-FRET assay. As to conditions: read-out: Btk (IC50). In a few lines:
(§1)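 Enzyme (Btk 0.5 nM; Lck 6 nM) reacted 1 h with inhibitor, ATP at Km and biotin-peptide substrate in pH 7.4 buffer, 10% DMSO. Phosphopeptide detected by Eu-p-Tyr100 antibody plus streptavidin-APC (665/615 nm). IC50 calculated from fitted Ki(app) via ATP/Km correction plus half total enzyme.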
In general terms: TR-FRET usually uses a lanthanide donor and a delayed reading to cut background.

In the next assay the target is Lck (Homo sapiens, UniProt P06239). The assay is described as follows: Lck kinase activity, TR-FRET assay. The conditions noted are these: read-out: LCK (IC50). In a few lines:
as §1

In the next assay the target is EGFR (Homo sapiens, UniProt P00533). The assay can be described thus: Inhibition of a panel of kinases, in vitro HotSpot kinase assay: EGFR. On the procedure:
(§2) The degree of inhibition of a panel of kinases is determined using the in vitro HotSpot kinase assay (purified enzymes, ^33P-ATP, an appropriate substrate and 1 uM ATP).

A further assay has as its target T1, JAK3 (Homo sapiens, UniProt P52333).
T1 sequence (P52333 1-1124): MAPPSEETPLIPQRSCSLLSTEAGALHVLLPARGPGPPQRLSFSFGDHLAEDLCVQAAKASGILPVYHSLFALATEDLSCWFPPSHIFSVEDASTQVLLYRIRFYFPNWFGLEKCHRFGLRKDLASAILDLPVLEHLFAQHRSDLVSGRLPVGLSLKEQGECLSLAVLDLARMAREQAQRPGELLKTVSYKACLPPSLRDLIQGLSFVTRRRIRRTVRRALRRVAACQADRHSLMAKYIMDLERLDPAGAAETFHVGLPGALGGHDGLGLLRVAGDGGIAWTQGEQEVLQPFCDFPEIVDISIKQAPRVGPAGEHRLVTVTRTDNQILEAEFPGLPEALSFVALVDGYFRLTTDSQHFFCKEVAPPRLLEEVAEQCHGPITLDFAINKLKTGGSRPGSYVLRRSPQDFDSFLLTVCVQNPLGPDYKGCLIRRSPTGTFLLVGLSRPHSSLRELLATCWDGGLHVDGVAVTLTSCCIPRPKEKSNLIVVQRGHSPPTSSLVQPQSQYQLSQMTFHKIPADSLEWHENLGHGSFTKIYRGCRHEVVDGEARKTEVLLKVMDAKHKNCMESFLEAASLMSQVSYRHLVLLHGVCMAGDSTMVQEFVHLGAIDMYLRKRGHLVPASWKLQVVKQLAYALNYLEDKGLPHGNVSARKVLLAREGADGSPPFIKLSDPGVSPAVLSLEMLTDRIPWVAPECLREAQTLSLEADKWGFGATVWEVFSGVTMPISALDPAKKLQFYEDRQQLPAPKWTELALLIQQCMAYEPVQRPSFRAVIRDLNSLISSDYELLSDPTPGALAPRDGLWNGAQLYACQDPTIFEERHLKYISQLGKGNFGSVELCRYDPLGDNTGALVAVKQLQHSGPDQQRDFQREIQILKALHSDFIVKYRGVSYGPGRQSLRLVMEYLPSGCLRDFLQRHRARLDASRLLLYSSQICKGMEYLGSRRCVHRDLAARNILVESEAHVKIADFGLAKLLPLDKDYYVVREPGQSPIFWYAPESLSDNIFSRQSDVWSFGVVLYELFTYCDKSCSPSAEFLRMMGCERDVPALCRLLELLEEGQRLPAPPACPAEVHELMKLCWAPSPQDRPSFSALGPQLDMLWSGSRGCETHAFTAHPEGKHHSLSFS
The assay can be described thus: Inhibition of a panel of kinases, in vitro HotSpot kinase assay: JAK3. On the procedure: as §2

The structures appear in SMILES notation. Where only a bound is given, the exact number is not on record here.

Chain of Lck (P06239 whole entry, species assumed): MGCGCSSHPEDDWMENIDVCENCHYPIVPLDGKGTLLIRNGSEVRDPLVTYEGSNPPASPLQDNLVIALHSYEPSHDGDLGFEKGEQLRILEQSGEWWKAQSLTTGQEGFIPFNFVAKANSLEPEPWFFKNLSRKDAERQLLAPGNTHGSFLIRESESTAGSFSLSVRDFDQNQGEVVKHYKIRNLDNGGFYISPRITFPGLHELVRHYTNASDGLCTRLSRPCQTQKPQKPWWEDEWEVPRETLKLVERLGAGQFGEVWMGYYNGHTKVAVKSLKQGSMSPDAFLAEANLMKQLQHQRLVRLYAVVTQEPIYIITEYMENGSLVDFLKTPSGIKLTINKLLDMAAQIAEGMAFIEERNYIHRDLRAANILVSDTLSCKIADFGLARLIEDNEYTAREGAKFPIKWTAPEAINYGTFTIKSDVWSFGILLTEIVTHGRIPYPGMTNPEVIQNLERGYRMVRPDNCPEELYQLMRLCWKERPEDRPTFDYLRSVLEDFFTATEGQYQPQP
Chain of Btk (Q06187 whole entry): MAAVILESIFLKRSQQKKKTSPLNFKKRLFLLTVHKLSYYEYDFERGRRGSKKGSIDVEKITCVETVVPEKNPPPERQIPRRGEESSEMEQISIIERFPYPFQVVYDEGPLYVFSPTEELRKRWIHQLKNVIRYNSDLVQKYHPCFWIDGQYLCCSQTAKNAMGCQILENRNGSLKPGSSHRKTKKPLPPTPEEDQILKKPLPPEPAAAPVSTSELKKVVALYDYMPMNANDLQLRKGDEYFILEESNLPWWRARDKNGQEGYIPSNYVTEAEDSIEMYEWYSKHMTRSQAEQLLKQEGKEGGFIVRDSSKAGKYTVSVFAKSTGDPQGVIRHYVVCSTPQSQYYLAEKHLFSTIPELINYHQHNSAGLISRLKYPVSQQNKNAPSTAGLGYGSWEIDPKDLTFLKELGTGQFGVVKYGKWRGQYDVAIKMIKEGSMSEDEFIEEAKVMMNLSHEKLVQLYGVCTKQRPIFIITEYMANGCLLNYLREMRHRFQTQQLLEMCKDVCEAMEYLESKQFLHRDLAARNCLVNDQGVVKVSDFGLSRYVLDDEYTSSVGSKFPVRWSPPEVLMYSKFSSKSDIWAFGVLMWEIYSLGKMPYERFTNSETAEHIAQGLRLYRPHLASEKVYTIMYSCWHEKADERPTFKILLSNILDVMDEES
Chain of EGFR (P00533 25-1210): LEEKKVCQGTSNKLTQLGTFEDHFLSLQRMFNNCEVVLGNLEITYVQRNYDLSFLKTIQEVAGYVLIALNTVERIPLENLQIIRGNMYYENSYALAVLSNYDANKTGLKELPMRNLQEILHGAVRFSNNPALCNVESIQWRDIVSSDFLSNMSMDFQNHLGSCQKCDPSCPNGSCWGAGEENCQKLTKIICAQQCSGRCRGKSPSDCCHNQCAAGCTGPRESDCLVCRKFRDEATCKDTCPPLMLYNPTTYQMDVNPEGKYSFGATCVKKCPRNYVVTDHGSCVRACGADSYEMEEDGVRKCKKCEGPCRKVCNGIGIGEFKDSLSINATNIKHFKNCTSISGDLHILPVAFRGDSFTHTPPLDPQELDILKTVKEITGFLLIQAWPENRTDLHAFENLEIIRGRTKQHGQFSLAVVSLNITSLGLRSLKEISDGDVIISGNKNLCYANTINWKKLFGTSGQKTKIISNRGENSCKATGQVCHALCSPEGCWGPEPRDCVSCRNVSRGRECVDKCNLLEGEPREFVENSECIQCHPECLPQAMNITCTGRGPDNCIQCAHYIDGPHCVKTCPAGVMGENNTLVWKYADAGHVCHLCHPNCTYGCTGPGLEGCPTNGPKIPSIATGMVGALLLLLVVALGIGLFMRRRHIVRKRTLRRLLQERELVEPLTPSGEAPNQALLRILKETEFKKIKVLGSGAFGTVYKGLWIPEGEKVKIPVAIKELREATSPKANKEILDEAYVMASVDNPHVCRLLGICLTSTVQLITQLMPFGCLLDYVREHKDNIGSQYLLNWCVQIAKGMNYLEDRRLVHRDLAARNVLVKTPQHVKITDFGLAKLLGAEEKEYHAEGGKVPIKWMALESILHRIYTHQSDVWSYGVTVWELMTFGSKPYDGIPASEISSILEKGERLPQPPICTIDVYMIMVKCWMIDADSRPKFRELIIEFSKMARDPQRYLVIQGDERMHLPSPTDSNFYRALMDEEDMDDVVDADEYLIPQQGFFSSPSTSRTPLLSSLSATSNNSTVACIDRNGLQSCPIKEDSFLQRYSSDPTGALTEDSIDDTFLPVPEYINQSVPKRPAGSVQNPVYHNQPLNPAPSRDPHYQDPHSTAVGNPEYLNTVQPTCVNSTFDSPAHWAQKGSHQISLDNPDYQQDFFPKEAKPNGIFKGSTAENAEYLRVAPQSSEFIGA

As usually defined, the IC50 is the point on the concentration scale where inhibition reaches its midpoint. For `Cc1ccnc(NC(=O)c2ccc(Oc3ccnc4[nH]nc(N[C@@H]5CCCN(C(=O)C6(C)CC6)C5)c34)cc2)c1` [compound 120, 4-[(3-{[(3R)-1-(1-methylcyclopropanecarbonyl)piperidin-3-yl]amino}-1H-pyrazolo[3,4-b]pyridin-4-yl)oxy]-N-(4-methylpyridin-2-yl)benzamide], the IC50 at Btk was below 0.1 µM; on Lck it was 0.1 to 1 µM; against EGFR it was above 10 µM; against JAK3, above 10 µM.
For `C=CC(=O)N1CC[C@@H](Nc2n[nH]c3nccc(Oc4cccc(C(=O)Nc5ccc(C(C)C)c(C)c5)c4)c23)C1` [compound 122, N-[3-methyl-4-(propan-2-yl)phenyl]-3-[(3-{[(3R)-1-(prop-2-enoyl)pyrrolidin-3-yl]amino}-1H-pyrazolo[3,4-b]pyridin-4-yl)oxy]benzamide], the IC50 on Btk is below 0.1 µM; at Lck it was below 0.1 µM; against EGFR, 0.1 to 1 µM; against JAK3, below 0.1 µM.
As for `CC(=O)N1CC[C@@H](Nc2n[nH]c3nccc(Oc4cccc(C(=O)Nc5ccc(C(C)C)c(C)c5)c4)c23)C1` [compound 123, 3-[(3-{[(3R)-1-acetylpyrrolidin-3-yl]amino}-1H-pyrazolo[3,4-b]pyridin-4-yl)oxy]-N-[3-methyl-4-(propan-2-yl)phenyl]benzamide], the IC50 at Btk was 0.1 to 1 µM; at Lck it was below 0.1 µM; at EGFR, 1 to 10 µM; on JAK3, 1 to 10 µM.
For `CC(=O)N1CC[C@H](Nc2n[nH]c3nccc(Oc4cccc(C(=O)Nc5ccc(C(C)C)c(C)c5)c4)c23)C1` [compound 124, 3-[(3-{[(3S)-1-acetylpyrrolidin-3-yl]amino}-1H-pyrazolo[3,4-b]pyridin-4-yl)oxy]-N-[3-methyl-4-(propan-2-yl)phenyl]benzamide], the IC50 at Btk is 0.1 to 1 µM; on Lck it was below 0.1 µM; at EGFR, 1 to 10 µM; against JAK3, 1 to 10 µM.
Regarding `Cc1cc(NC(=O)c2cccc(Oc3ccnc4[nH]nc(N[C@H]5CCN(C(=O)C6CC6)C5)c34)c2)ccc1C(C)C` [compound 125, 3-[(3-{[(3S)-1-cyclopropanecarbonylpyrrolidin-3-yl]amino}-1H-pyrazolo[3,4-b]pyridin-4-yl)oxy]-N-[3-methyl-4-(propan-2-yl)phenyl]benzamide], the IC50 is 0.1 to 1 µM at Btk, below 0.1 µM at Lck, above 10 µM against EGFR and 1 to 10 µM against JAK3.
For the compound `C=CC(=O)N1CC[C@H](Nc2n[nH]c3nccc(Oc4cccc(C(=O)Nc5ccc(C(C)C)c(C)c5)c4)c23)C1` [compound 126, N-[3-methyl-4-(propan-2-yl)phenyl]-3-[(3-{[(3S)-1-(prop-2-enoyl)pyrrolidin-3-yl]amino}-1H-pyrazolo[3,4-b]pyridin-4-yl)oxy]benzamide], the IC50 was 0.1 to 1 µM on Btk, below 0.1 µM on Lck, 1 to 10 µM at EGFR and 0.1 to 1 µM on JAK3.
For the compound `Cc1cc(NC(=O)c2cccc(Oc3ccnc4[nH]nc(N[C@H]5CCN(C(=O)c6ccc(F)cc6)C5)c34)c2)ccc1C(C)C` [compound 128, 3-[(3-{[(3S)-1-(4-fluorobenzoyl)pyrrolidin-3-yl]amino}-1H-pyrazolo[3,4-b]pyridin-4-yl)oxy]-N-[3-methyl-4-(propan-2-yl)phenyl]benzamide], the IC50 at Btk was 0.1 to 1 µM; at Lck, below 0.1 µM; on EGFR, above 10 µM; against JAK3, above 10 µM.
As for `C=CC(=O)N1CCC[C@@H](Oc2n[nH]c3nccc(Nc4cccc(C(=O)Nc5ccc(C(C)C)c(C)c5)c4)c23)C1` [compound 132, N-[3-methyl-4-(propan-2-yl)phenyl]-3-[(3-{[(3R)-1-(prop-2-enoyl)piperidin-3-yl]oxy}-1H-pyrazolo[3,4-b]pyridin-4-yl)amino]benzamide], the IC50 at Btk is below 0.1 µM; on Lck it was 1 to 10 µM; on EGFR it was below 0.1 µM; at JAK3, below 0.1 µM.
On to `Cc1cc(NC(=O)c2cccc(Nc3ccnc4[nH]nc(N[C@@H]5CCCN(C(=O)N6CCOCC6)C5)c34)c2)ccc1C(C)C` [compound 133, N-[3-methyl-4-(propan-2-yl)phenyl]-3-[(3-{[(3R)-1-(morpholine-4-carbonyl)piperidin-3-yl]amino}-1H-pyrazolo[3,4-b]pyridin-4-yl)amino]benzamide], for which the half-maximal inhibitory concentration (IC50) on Btk is 0.1 to 1 µM; at Lck, 1 to 10 µM; at EGFR, above 10 µM; at JAK3, above 10 µM.
`Cc1cc(NC(=O)c2cccc(Nc3ccnc4[nH]nc(O[C@@H]5CCCN(C(=O)C6CC6)C5)c34)c2)ccc1C(C)C` [compound 134, 3-[(3-{[(3R)-1-cyclopropanecarbonylpiperidin-3-yl]oxy}-1H-pyrazolo[3,4-b]pyridin-4-yl)amino]-N-[3-methyl-4-(propan-2-yl)phenyl]benzamide]: the IC50 at Btk was 0.1 to 1 µM; on Lck, 1 to 10 µM; on EGFR, above 10 µM; against JAK3 it was above 10 µM.
Consider `CC(=O)N1CCC[C@@H](Oc2n[nH]c3nccc(Nc4cccc(C(=O)Nc5ccc(C(C)C)c(C)c5)c4)c23)C1` [compound 135, 3-[(3-{[(3R)-1-acetylpiperidin-3-yl]oxy}-1H-pyrazolo[3,4-b]pyridin-4-yl)amino]-N-[3-methyl-4-(propan-2-yl)phenyl]benzamide], for which the IC50 at Btk was 0.1 to 1 µM; at Lck it was 1 to 10 µM; against EGFR, 1 to 10 µM; on JAK3, above 10 µM.
With `CN1CCc2sc(NC(=O)c3ccc(Oc4ccnc5[nH]nc(N[C@@H]6CCCN(C(=O)/C=C/CN(C)C7CC7)C6)c45)cc3)nc2C1` [compound 137, 4-[(3-{[(3R)-1-[(2E)-4-[cyclopropyl(methyl)amino]but-2-enoyl]piperidin-3-yl]amino}-1H-pyrazolo[3,4-b]pyridin-4-yl)oxy]-N-{5-methyl-4H,5H,6H,7H-[1,3]thiazol[4,5-c]pyridin-2-yl}benzamide], the half-inhibitory concentration (IC50) is 0.1 to 1 µM at Btk, above 10 µM on Lck, above 10 µM against EGFR and above 10 µM against JAK3.
As for `Cc1csc(NC(=O)c2ccc(Oc3ccnc4[nH]nc(N[C@@H]5CCCN(C(=O)/C=C/CN(C)C6CC6)C5)c34)cc2)n1` [compound 139], the IC50 on Btk was 0.1 to 1 µM; at Lck, above 10 µM; on EGFR, 1 to 10 µM; at JAK3 it was 1 to 10 µM.
With `C=CC(=O)N1CCC[C@@H](Nc2n[nH]c3nccc(Oc4ccc(C(=O)Nc5ncc(C)s5)cc4)c23)C1` [compound 140], the IC50 on Btk is below 0.1 µM; on Lck it was 0.1 to 1 µM; against EGFR, 0.1 to 1 µM; against JAK3, below 0.1 µM.
Turning to `CC#CC(=O)N1CCC[C@@H](Nc2n[nH]c3nccc(Oc4ccc(C(=O)Nc5ncc(C)s5)cc4)c23)C1` [compound 141], the IC50 on Btk is below 0.1 µM; on Lck it was 1 to 10 µM; against EGFR, above 10 µM; at JAK3, 1 to 10 µM.
Take `Cc1cnc(NC(=O)c2ccc(Oc3ccnc4[nH]nc(N[C@@H]5CCCN(C(=O)/C=C/CN(C)C6CC6)C5)c34)cc2)s1` [compound 142]: the concentration for half-maximal inhibition (IC50) was below 0.1 µM at Btk, 1 to 10 µM at Lck, 1 to 10 µM at EGFR and 1 to 10 µM against JAK3.
Regarding `C=CC(=O)N1CCC[C@@H](Nc2n[nH]c3nccc(Oc4ccc(C(=O)Nc5nc(C)cs5)cc4)c23)C1` [compound 143], the IC50 at Btk is below 0.1 µM; on Lck, 1 to 10 µM; on EGFR, 1 to 10 µM; on JAK3, below 0.1 µM.
`C=CC(=O)N1CCC[C@@H](Nc2n[nH]c3nccc(O[C@H]4CC[C@H](C(=O)Nc5ncc(C)s5)CC4)c23)C1` [compound 144]: the IC50 was 0.1 to 1 µM on Btk, above 10 µM on Lck, 1 to 10 µM at EGFR and 0.1 to 1 µM on JAK3.
